Data published in ChEMBL document CHEMBL1201862, “PubChem BioAssay data set” (2004).
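Compound exposure: 48 hours, 5 concentrations, 96-well plates. Abbreviation: GI50, concentration required for 50% inhibition of growth.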 Active and inactive are the calls of the source. No stated cut-off is given here; in the data, active = GI50 up to about 1.1 µM and inactive = higher.

Key:
Assay in all cases: growth of human tumour cells (NCI), 48 h
COLO 205 = tested on: COLO 205
UO-31 = tested on: UO-31
SK-MEL-28 = tested on: SK-MEL-28
DLD-1 = tested on: DLD-1
NCI-H23 = tested on: NCI-H23
NCI-H522 = tested on: NCI-H522
Malme-3M = tested on: Malme-3M
MOLT-4 = tested on: MOLT-4
OVCAR-8 = tested on: OVCAR-8
M19-MEL = tested on: M19-MEL
SF-539 = tested on: SF-539
U-251 = tested on: U-251
SNB-19 = tested on: SNB-19
DMS-114 = tested on: DMS-114
HOP-92 = tested on: HOP-92
LXFL 529 = tested on: LXFL 529
HCT-116 = tested on: HCT-116
A498 = tested on: A498
CCRF-CEM = tested on: CCRF-CEM
SF-268 = tested on: SF-268
SNB-78 = tested on: SNB-78
RXF 631 = tested on: RXF 631
M14 = tested on: M14
KM-20L2 = tested on: KM-20L2
HCT-15 = tested on: HCT-15
A549 = tested on: A549
SNB-75 = tested on: SNB-75
LOX IMVI = tested on: LOX IMVI
SK-OV-3 = tested on: SK-OV-3
HT-29 = tested on: HT-29
HCC 2998 = tested on: HCC 2998
SK-MEL-5 = tested on: SK-MEL-5
UACC-62 = tested on: UACC-62
NCI-H226 = tested on: NCI-H226
K562 = tested on: K562
UACC-257 = tested on: UACC-257
SK-MEL-2 = tested on: SK-MEL-2
EKVX = tested on: EKVX
OVCAR-5 = tested on: OVCAR-5
786-0 = tested on: 786-0
NCI-H460 = tested on: NCI-H460
ACHN = tested on: ACHN
SN12C = tested on: SN12C
SR = tested on: SR
TK-10 = tested on: TK-10
DMS-273 = tested on: DMS-273
HL-60 = tested on: HL-60
SF-295 = tested on: SF-295
CAKI-1 = tested on: CAKI-1
OVCAR-4 = tested on: OVCAR-4
KM12 = tested on: KM12
HOP-18 = tested on: HOP-18
IGROV-1 = tested on: IGROV-1
SW-620 = tested on: SW-620
OVCAR-3 = tested on: OVCAR-3
RPMI-8226 = tested on: RPMI-8226
HOP-62 = tested on: HOP-62
RXF 393 = tested on: RXF 393

`O=C(O)CCC1c2[nH]c3ccccc3c2CCN1Cc1ccccc1` (configuration not stated) was tested, and the GI50 (COLO 205) was > 100 µM (inactive), the GI50 (UO-31) was > 100 µM (inactive) and the GI50 (SK-MEL-28) was > 100 µM (inactive). For the same compound, the GI50 (DLD-1) was > 100 µM (inactive), the GI50 (NCI-H23) was > 100 µM (inactive) and the GI50 (NCI-H522) was > 100 µM (inactive). For the same compound, the GI50 (Malme-3M) was > 100 µM (inactive), the GI50 (MOLT-4) was > 100 µM (inactive) and the GI50 (OVCAR-8) was > 100 µM (inactive). The GI50 (M19-MEL) was > 100 µM (inactive), the GI50 (SF-539) was > 100 µM (inactive) and the GI50 (U-251) was > 100 µM (inactive). For the same compound, the GI50 (SNB-19) was > 100 µM (inactive), the GI50 (DMS-114) was > 100 µM (inactive) and the GI50 (HOP-92) was > 100 µM (inactive). For the same compound, the GI50 (LXFL 529) was > 100 µM (inactive), the GI50 (HCT-116) was > 100 µM (inactive) and the GI50 (A498) was > 100 µM (inactive). The GI50 (CCRF-CEM) was > 100 µM (inactive), the GI50 (SF-268) was > 100 µM (inactive) and the GI50 (SNB-78) was > 100 µM (inactive). For the same compound, the GI50 (RXF 631) was > 100 µM (inactive), the GI50 (M14) was > 100 µM (inactive) and the GI50 (KM-20L2) was > 100 µM (inactive). For the same compound, the GI50 (HCT-15) was over 100 µM, the GI50 (A549) was > 100 µM (inactive) and the GI50 (SNB-75) was > 100 µM (inactive). For the same compound, the GI50 (LOX IMVI) was > 100 µM (inactive), the GI50 (SK-OV-3) was > 100 µM (inactive) and the GI50 (HT-29) was > 100 µM (inactive). For the same compound, the GI50 (HCC 2998) was > 100 µM (inactive), the GI50 (SK-MEL-5) was > 100 µM (inactive) and the GI50 (UACC-62) was > 100 µM (inactive). The GI50 (NCI-H226) was > 100 µM (inactive), the GI50 (K562) was > 100 µM (inactive) and the GI50 (UACC-257) was > 100 µM (inactive). The GI50 (SK-MEL-2) was > 100 µM (inactive), the GI50 (EKVX) was > 100 µM (inactive) and the GI50 (OVCAR-5) was > 100 µM (inactive). For the same compound, the GI50 (786-0) was > 100 µM (inactive), the GI50 (NCI-H460) was > 100 µM (inactive) and the GI50 (ACHN) was > 100 µM (inactive). For the same compound, the GI50 (SN12C) was > 100 µM (inactive), the GI50 (SR) was > 100 µM (inactive) and the GI50 (TK-10) was > 100 µM (inactive). The GI50 (DMS-273) was > 100 µM (inactive), the GI50 (HL-60) was > 100 µM (inactive) and the GI50 (SF-295) was > 100 µM (inactive). For the same compound, the GI50 (CAKI-1) was > 100 µM (inactive), the GI50 (OVCAR-4) was > 100 µM (inactive) and the GI50 (KM12) was > 100 µM (inactive). The GI50 (HOP-18) was > 100 µM (inactive), the GI50 (IGROV-1) was > 100 µM (inactive) and the GI50 (SW-620) was > 100 µM (inactive). The GI50 (OVCAR-3) was > 100 µM (inactive).
For `O=C1OC(=O)C([Se]c2ccccc2)=C1[Se]c1ccccc1`, the GI50 (COLO 205) was > 100 µM (inactive), the GI50 (SK-MEL-28) was > 100 µM (inactive) and the GI50 (DLD-1) was > 100 µM (inactive). The GI50 (NCI-H23) was 32.4 µM (inactive), the GI50 (NCI-H522) was > 100 µM (inactive) and the GI50 (Malme-3M) was > 100 µM (inactive). The GI50 (MOLT-4) was > 100 µM (inactive), the GI50 (OVCAR-8) was > 100 µM (inactive) and the GI50 (SF-539) was > 100 µM (inactive). For the same compound, the GI50 (U-251) was > 100 µM (inactive), the GI50 (SNB-19) was > 100 µM (inactive) and the GI50 (RPMI-8226) was > 100 µM (inactive). For the same compound, the GI50 (DMS-114) was > 100 µM (inactive), the GI50 (HOP-92) was 70.1 µM (inactive) and the GI50 (LXFL 529) was > 100 µM (inactive). For the same compound, the GI50 (HCT-116) was > 100 µM (inactive), the GI50 (A498) was > 100 µM (inactive) and the GI50 (CCRF-CEM) was > 100 µM (inactive). For the same compound, the GI50 (SF-268) was > 100 µM (inactive), the GI50 (SNB-78) was > 100 µM (inactive) and the GI50 (RXF 631) was > 100 µM (inactive). The GI50 (M14) was > 100 µM (inactive), the GI50 (KM-20L2) was > 100 µM (inactive) and the GI50 (HCT-15) was over 100 µM. For the same compound, the GI50 (A549) was > 100 µM (inactive), the GI50 (SNB-75) was > 100 µM (inactive) and the GI50 (LOX IMVI) was > 100 µM (inactive). For the same compound, the GI50 (SK-OV-3) was > 100 µM (inactive), the GI50 (HT-29) was 44.9 µM (inactive) and the GI50 (SK-MEL-5) was > 100 µM (inactive). The GI50 (UACC-62) was > 100 µM (inactive), the GI50 (NCI-H226) was > 100 µM (inactive) and the GI50 (K562) was > 100 µM (inactive). The GI50 (UACC-257) was > 100 µM (inactive), the GI50 (EKVX) was > 100 µM (inactive) and the GI50 (OVCAR-5) was > 100 µM (inactive). For the same compound, the GI50 (786-0) was > 100 µM (inactive), the GI50 (NCI-H460) was > 100 µM (inactive) and the GI50 (ACHN) was > 100 µM (inactive). The GI50 (SN12C) was > 100 µM (inactive), the GI50 (SR) was > 100 µM (inactive) and the GI50 (TK-10) was > 100 µM (inactive). The GI50 (HL-60) was > 100 µM (inactive), the GI50 (SF-295) was > 100 µM (inactive) and the GI50 (CAKI-1) was > 100 µM (inactive). For the same compound, the GI50 (HOP-62) was > 100 µM (inactive), the GI50 (OVCAR-4) was > 100 µM (inactive) and the GI50 (HOP-18) was > 100 µM (inactive). The GI50 (RXF 393) was > 100 µM (inactive), the GI50 (IGROV-1) was > 100 µM (inactive) and the GI50 (SW-620) was > 100 µM (inactive). For the same compound, the GI50 (OVCAR-3) was > 100 µM (inactive).
